The values below come from ChEMBL document CHEMBL5728791, “Heteroaromatic derivatives as NIK inhibitors” (2021).

This experiment deals with Mitogen-activated protein kinase kinase kinase 14 (Homo sapiens, UniProt Q99558). Description: Inhibition of auto-phosphorylation of recombinant human NF-kappaB-inducing kinase (NIK/MAP3K14) activity: NIK/MAP3K14 auto-phosphorylation activity was measured using the AlphaScreen® (αscreen) format (Perkin Elmer). All compounds tested were dissolved in dimethyl sulfoxide (DMSO) and further dilutions were made in assay buffer. Final DMSO concentration was 1% (v/v) in assays. Assay buffer was 50 mM Tris pH 7.5 containing 1 mM EGTA (ethylene glycol tetraacetic acid), 1 mM DTT (dithiothreitol), 0.1 mM Na3VO4, 5 mM MgCl2, 0.01% Tween® 20. Assays were carried out in 384 well Alphaplates (Perkin Elmer). Incubations consisted of compound, 25 microM Adenosine-5′-triphosphate (ATP), and 0.2 nM NIK/MAP3K14. Incubations were initiated by addition of GST-tagged NIK/MAP3K14 enzyme, carried out for 1 h at 25° C. and terminated by addition of stop buffer containing anti-phospho-IKK Ser176/180 antibody. Protein A Acceptor and Glutathione-Donor beads were added before reading using an EnVision® Multilabel Plate Reader (Perkin Elmer). Signal obtained in the wells containing blank samples was subtracted from all other wells and IC50's were determined by fitting a sigmoidal curve to % inhibition of control versus Log10 compound concentration.
Mitogen-activated protein kinase kinase kinase 14, sequence (Q99558 whole entry): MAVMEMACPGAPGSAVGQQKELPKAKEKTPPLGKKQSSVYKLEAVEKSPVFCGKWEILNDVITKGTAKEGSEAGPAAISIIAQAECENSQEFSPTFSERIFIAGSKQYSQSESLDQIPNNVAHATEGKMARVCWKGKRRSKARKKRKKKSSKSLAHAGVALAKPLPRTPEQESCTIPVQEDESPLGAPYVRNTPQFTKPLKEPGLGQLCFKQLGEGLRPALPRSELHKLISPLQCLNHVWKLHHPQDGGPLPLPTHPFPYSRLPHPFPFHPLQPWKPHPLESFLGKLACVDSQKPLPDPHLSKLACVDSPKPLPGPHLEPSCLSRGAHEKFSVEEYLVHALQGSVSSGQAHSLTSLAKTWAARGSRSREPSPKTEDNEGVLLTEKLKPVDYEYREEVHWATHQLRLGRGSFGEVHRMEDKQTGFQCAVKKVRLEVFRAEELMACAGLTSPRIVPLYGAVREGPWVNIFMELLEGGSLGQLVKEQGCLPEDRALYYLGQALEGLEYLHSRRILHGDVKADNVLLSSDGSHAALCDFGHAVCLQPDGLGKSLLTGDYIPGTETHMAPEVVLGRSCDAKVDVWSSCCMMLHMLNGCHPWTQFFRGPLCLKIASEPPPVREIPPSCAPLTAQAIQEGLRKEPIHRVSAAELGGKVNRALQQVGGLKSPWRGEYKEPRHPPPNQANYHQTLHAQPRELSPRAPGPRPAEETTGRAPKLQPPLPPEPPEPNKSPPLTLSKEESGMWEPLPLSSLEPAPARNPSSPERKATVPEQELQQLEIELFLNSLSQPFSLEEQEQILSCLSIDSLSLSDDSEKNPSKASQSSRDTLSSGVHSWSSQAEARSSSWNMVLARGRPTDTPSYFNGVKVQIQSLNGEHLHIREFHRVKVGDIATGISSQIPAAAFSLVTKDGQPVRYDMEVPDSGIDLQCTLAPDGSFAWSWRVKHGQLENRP
By IC50 is commonly meant the concentration at which inhibition is half-maximal. As to `COCCCn1nc(C)cc1Nc1nccc(-c2cc(C#N)c3c(c2)[C@@](C)(CO)CN3)n1`, the IC50 was 4 nM.
As for `Cc1nn(C)cc1Nc1nccc(-c2cc(C#N)c3c(c2)C(C)(CO)CN3)n1` (stereo not drawn), the IC50 worked out at 3.2 nM.
In the case of `Cc1cc(Nc2nccc(-c3cc(C#N)c4c(c3)C(C)(CO)CN4)n2)n(CCN(C)C)n1` (stereo not drawn) it was 21 nM.
